Experimental data: the NIST ThermoML archive (doi:10.1016/j.jct.2009.08.018)

Assay: xn = mol fraction of the nth substance listed
Details: Liquid, Static

CCCCCC[n+]1ccn(C)c1.O=S(=O)([N-]S(=O)(=O)C(F)(F)F)C(F)(F)F + O=C=O
Details	molar volume [m3/mol]
298.15 K, 2015 kPa, x2 = 0.396	0.0002205
298.15 K, 3586 kPa, x2 = 0.592	0.000163
298.15 K, 6489 kPa, x2 = 0.762	0.0001127
298.15 K, 8967 kPa, x2 = 0.8	9.883e-05
298.15 K, 10321 kPa, x2 = 0.81	9.556e-05
298.15 K, 11969 kPa, x2 = 0.819	9.198e-05
298.15 K, 13525 kPa, x2 = 0.822	9.084e-05
298.15 K, 14804 kPa, x2 = 0.823	9.095e-05
323.15 K, 800 kPa, x2 = 0.139	0.0003082
323.15 K, 3716 kPa, x2 = 0.487	0.0002013
323.15 K, 5430 kPa, x2 = 0.583	0.0001725
323.15 K, 6560 kPa, x2 = 0.637	0.0001568
323.15 K, 8039 kPa, x2 = 0.692	0.0001395
323.15 K, 9078 kPa, x2 = 0.726	0.0001282
323.15 K, 9969 kPa, x2 = 0.751	0.000118
323.15 K, 11081 kPa, x2 = 0.769	0.0001108
323.15 K, 12224 kPa, x2 = 0.774	0.0001094
323.15 K, 12959 kPa, x2 = 0.779	0.0001079
343.15 K, 1793 kPa, x2 = 0.14	0.0003081
343.15 K, 2754 kPa, x2 = 0.239	0.0002782
343.15 K, 5537 kPa, x2 = 0.436	0.0002194
343.15 K, 8861 kPa, x2 = 0.596	0.0001701
343.15 K, 11560 kPa, x2 = 0.673	0.0001447
343.15 K, 14469 kPa, x2 = 0.721	0.0001282
343.15 K, 19818 kPa, x2 = 0.755	0.0001169
343.15 K, 24708 kPa, x2 = 0.771	0.0001115

CCn1cc[n+](C)c1.O=S(=O)([N-]S(=O)(=O)C(F)(F)F)C(F)(F)F + O=C=O
Details	molar volume [m3/mol]
298.15 K, 1235 kPa, x2 = 0.28	0.000204
298.15 K, 3254 kPa, x2 = 0.533	0.0001415
298.15 K, 6471 kPa, x2 = 0.747	9.622e-05
298.15 K, 10194 kPa, x2 = 0.767	9.034e-05
298.15 K, 11608 kPa, x2 = 0.777	8.747e-05
298.15 K, 13084 kPa, x2 = 0.781	8.646e-05
298.15 K, 14794 kPa, x2 = 0.782	8.625e-05
323.15 K, 2005 kPa, x2 = 0.302	0.0002021
323.15 K, 4250 kPa, x2 = 0.483	0.0001607
323.15 K, 6213 kPa, x2 = 0.587	0.0001367
323.15 K, 8156 kPa, x2 = 0.657	0.0001197
323.15 K, 10081 kPa, x2 = 0.711	0.0001049
323.15 K, 12307 kPa, x2 = 0.743	9.597e-05
323.15 K, 14625 kPa, x2 = 0.749	9.492e-05
343.15 K, 2182 kPa, x2 = 0.247	0.0002186
343.15 K, 4070 kPa, x2 = 0.416	0.0001777
343.15 K, 6063 kPa, x2 = 0.509	0.0001559
343.15 K, 7999 kPa, x2 = 0.579	0.0001394
343.15 K, 9938 kPa, x2 = 0.636	0.0001249
343.15 K, 12143 kPa, x2 = 0.684	0.0001117
343.15 K, 14682 kPa, x2 = 0.709	0.0001056

CCCCCCCCCCn1cc[n+](C)c1.O=S(=O)([N-]S(=O)(=O)C(F)(F)F)C(F)(F)F + O=C=O
Details	molar volume [m3/mol]
298.15 K, 1474 kPa, x2 = 0.35	0.0002775
298.15 K, 2828 kPa, x2 = 0.562	0.0001997
298.15 K, 4516 kPa, x2 = 0.709	0.000147
298.15 K, 6799 kPa, x2 = 0.81	0.0001111
298.15 K, 8659 kPa, x2 = 0.83	0.0001006
298.15 K, 10909 kPa, x2 = 0.841	9.556e-05
298.15 K, 12873 kPa, x2 = 0.848	9.235e-05
298.15 K, 14847 kPa, x2 = 0.849	9.169e-05
323.15 K, 1439 kPa, x2 = 0.257	0.0003212
323.15 K, 3371 kPa, x2 = 0.489	0.0002347
323.15 K, 6891 kPa, x2 = 0.696	0.0001569
323.15 K, 8581 kPa, x2 = 0.752	0.0001354
323.15 K, 10917 kPa, x2 = 0.8	0.0001145
323.15 K, 13030 kPa, x2 = 0.814	0.0001086
323.15 K, 14596 kPa, x2 = 0.819	0.0001071
343.15 K, 2003 kPa, x2 = 0.302	0.0003089
343.15 K, 3941 kPa, x2 = 0.475	0.0002428
343.15 K, 6242 kPa, x2 = 0.587	0.0002017
343.15 K, 8674 kPa, x2 = 0.683	0.000164
343.15 K, 10773 kPa, x2 = 0.744	0.0001384
343.15 K, 12515 kPa, x2 = 0.776	0.0001249
343.15 K, 14534 kPa, x2 = 0.801	0.000113
